Experimental data reported in US7556795B2, “Radiopharmaceutical formulations” (Bracco Imaging S.p.A., priority 2002, dated 2009).

Assay: Radiochemical purity (RCP) of 99mTc labeled peptide by HPLC
Format: physicochemical
Conditions: 99mTc complex, 4 μg ligand, 300 μL EtOH, ~40 mCi 99mTcO4-, average of multiple experiments; for Percent RCP at 6 hours: prepared at room temperature; for Percent RCP at 15 min: room temperature 15 min
Protocol: To prepare the ^99mTc complex of Compound 1, 300 μL of ethanol, 50 μL of ligand solution (4 μg Compound 1), 200 μL of gentisic acid solution (20 mg), 50 μL of hydroxypropyl-γ-cyclodextrin solution (2.5 mg) 100 μL of stannous gluconate solution (40 μg of SnCl2), and ^99mTcO4^− (˜40 mCi) was added. Water was added to bring the final volume to 1.0 mL, and the reaction was heated at 100° C. for 15-20 min.
The ^99mTc labeled peptide purity was determined by HPLC using a Vydac C18 protein and peptide analytical column, 300 A pore size, 4.6×250 mm column length. The following gradient (flow rate 1 mL/min) was used: Isocratic elution 78% H2O (0.1% TFA)/22% CH3CN (0.1% TFA) for 20 min, gradient from 78% to 40% CH3CN (0.1% TFA) over 5 min, hold at 40% CH3CN (0.1% TFA) for 10 min, ramp from 40% to 78% CH3CN (0.1% TFA) over 5 min.
To prepare the ^99mTc complex, 50 μL of ligand solution (4 μg Compound 1-4), 300 μL of EtOH, 250 μL of gentisic acid solution (20 mg), 50 μL of 1SnCl2: 34 Gluconic acid (40 μg of SnCl2), and ^99mTcO4^− (˜40 mCi, Syncor) was added. Water was added to bring the final volume to 1.0 mL, and the reaction was allowed to stand at room temperature for 15 min. The solutions were then analyzed for RCP as described in Example 2.
To 50 μL of the Compound 1 solution (4 μg) was added ^99mTcO4^− (190 μL, 41.5 mCi), 0.458 mL of H2O, 50 μL of the stannous gluconate solution (40 μg of SnCl2) and 262 μL of gentisic acid solution (20 mg). The reaction was heated at 100° for 5 min. prior to HPLC analysis, which was performed using the following system: Vydac C-18 Protein and Peptide column (4.6×250 mm) eluted with 78% H2O (0.1% TFA)/22% CH3CN (0.1% TFA) for 20′, ramped from 78% to 40% H2O (0.1% TFA) in 5′, held at 40% H2O (0.1% TFA) for 10′, then ramped from 40% to 78% H2O (0.1% TFA) in 5′. Flow rate: 1 mL/min. The resulting RCP was 87.4% initially and 87.1% at 6 hours. The recovery from the vial was 67%.

Row | SMILES | Percent RCP at 6 hours | Percent RCP at 15 min
1 | CSCCC(NC(=O)[C@H](CC(C)C)NC(=O)[C@H](Cc1cnc[nH]1)NC(=O)CNC(=O)[C@@H](NC(=O)[C@H](C)NC(=O)[C@H](Cc1c[nH]c2ccccc12)NC(=O)[C@H](CCC(N)=O)NC(=O)CCCCNC(=O)CNC(=O)[C@H](CS)NC(=O)[C@H](CO)NC(=O)CN(C)C)C(C)C)C(N)=O (stereo partly shown) [Compound 1] | 88.1% | –
2 | CSCC[C@H](NC(=O)[C@H](CC(C)C)NC(=O)[C@H](Cc1cnc[nH]1)NC(=O)CNC(=O)[C@@H](NC(=O)[C@H](C)NC(=O)[C@H](Cc1c[nH]c2ccccc12)NC(=O)[C@H](CCC(N)=O)NC(=O)CCCCNC(=O)CNC(=O)[C@H](CS)NC(=O)CNC(=O)CN(C)C)C(C)C)C(N)=O [Compound 2] | 78.7% | 80.8%
3 | CSCC[C@H](NC(=O)[C@H](CC(C)C)NC(=O)[C@H](Cc1cnc[nH]1)NC(=O)CNC(=O)[C@@H](NC(=O)[C@H](C)NC(=O)[C@H](Cc1c[nH]c2ccccc12)NC(=O)[C@H](CCC(N)=O)NC(=O)CCCCNC(=O)CNC(=O)[C@H](CS)NC(=O)[C@H](CO)NC(=O)CN)C(C)C)C(N)=O [Compound 3] | 82.4% | 86.7%
4 | CSCC[C@H](NC(=O)[C@H](CC(C)C)NC(=O)[C@H](Cc1cnc[nH]1)NC(=O)CNC(=O)[C@@H](NC(=O)[C@H](C)NC(=O)[C@H](Cc1c[nH]c2ccccc12)NC(=O)[C@H](CCC(N)=O)NC(=O)CCCCNC(=O)CNC(=O)[C@H](CS)NC(=O)CNC(=O)CN)C(C)C)C(N)=O [Compound 4] | 83.3% | 83.3%
